Experimental data reported in PubChem BioAssay (NCI).
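Five compound concentrations were applied to cells in 96-well plates for 48 hours; endpoints were derived by simple linear interpolation of the resulting dose-response curve. The concentration for 50% growth inhibition is given as GI50. At the TGI there is no net growth.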

Assays:
Test in all cases: growth of human tumour cells (NCI), 48 h
UACC-62 melanoma = system: UACC-62 melanoma
T-47D breast = system: T-47D breast
OVCAR-4 ovarian = system: OVCAR-4 ovarian
A498 renal = system: A498 renal
MDA-MB-231 breast = system: MDA-MB-231 breast
SK-OV-3 ovarian = system: SK-OV-3 ovarian
PC-3 prostate = system: PC-3 prostate
M14 melanoma = system: M14 melanoma
MALME-3M melanoma = system: MALME-3M melanoma
NCI-H460 lung = system: NCI-H460 lung

| SMILES | TGI (UACC-62 melanoma) [µM] | TGI (T-47D breast) [µM] | TGI (OVCAR-4 ovarian) [µM] | TGI (A498 renal) [µM] | TGI (MDA-MB-231 breast) [µM] | TGI (SK-OV-3 ovarian) [µM] | TGI (PC-3 prostate) [µM] | TGI (M14 melanoma) [µM] | TGI (MALME-3M melanoma) [µM] | TGI (NCI-H460 lung) [µM] | GI50 (UACC-62 melanoma) [µM] | GI50 (MALME-3M melanoma) [µM] | GI50 (T-47D breast) [µM] | GI50 (OVCAR-4 ovarian) [µM] | GI50 (A498 renal) [µM] | GI50 (MDA-MB-231 breast) [µM] | GI50 (NCI-H460 lung) [µM] | GI50 (PC-3 prostate) [µM] | GI50 (M14 melanoma) [µM] |
| --- | --- | --- | --- | --- | --- | --- | --- | --- | --- | --- | --- | --- | --- | --- | --- | --- | --- | --- | --- |
| CC1=NN(c2nc(N)nc(CO)n2)C(C)(C)C1 | > 100 | > 100 | > 100 | > 100 | > 100 | > 100 | > 100 | > 100 | – | – | – | – | – | – | – | – | – | – | – |
| O=C1NC(N2CCCC(CO)C2)=N/C1=C\c1cccs1 (stereo unspecified) | > 100 | > 100 | > 100 | – | > 100 | > 100 | > 100 | > 100 | > 100 | – | – | – | – | – | – | – | – | – | – |
| NC(CCC(=O)c1ccccn1)C(=O)O (stereo unspecified) | > 100 | > 100 | > 100 | > 100 | > 100 | > 100 | > 100 | > 100 | > 100 | > 100 | – | – | – | – | – | – | – | – | – |
| CC(=O)OC1CCn2c1nc1cc([N+](=O)[O-])c(C)cc12 (stereo unspecified) | > 100 | > 100 | > 100 | > 100 | > 100 | > 100 | > 100 | > 100 | > 100 | > 100 | – | – | – | – | – | – | – | – | – |
| NC(Cc1ccccc1)C(=O)OCN1C(=O)C2C3C=CC(C2C1=O)C1C(=O)N(COC(=O)C(N)Cc2ccccc2)C(=O)C31 (stereo unspecified) | > 100 | > 100 | – | – | > 100 | – | > 100 | > 100 | > 100 | > 100 | – | – | – | – | – | – | – | – | – |
| CC(=O)Oc1ccc2cc(Oc3cc(Cl)c(Cl)cc3Cl)c(=O)oc2c1 | – | > 100 | > 100 | 46.7 | 33.7 | – | 33 | 35.2 | 31.3 | 37.8 | – | – | – | – | – | – | – | – | – |
| CCOC(=O)C1=C(O)CC(=O)N=C1N1CCCC1 | > 100 | > 100 | > 100 | > 100 | > 100 | > 100 | > 100 | > 100 | > 100 | – | – | – | – | – | – | – | – | – | – |
| CC1CC(=O)N(N(C)C)C2(C#N)C(=O)N=C(N)C12C#N (stereo unspecified) | > 100 | > 100 | > 100 | > 100 | > 100 | > 100 | > 100 | > 100 | > 100 | – | – | – | – | – | – | – | – | – | – |
| CCOC(=O)C(C)c1nc2cc(F)c(F)cc2[nH]c1=O (stereo unspecified) | > 100 | > 100 | > 100 | – | > 100 | > 100 | > 100 | > 100 | > 100 | > 100 | – | – | – | – | – | – | – | – | – |
| Cc1sc(/N=C/C2=C(O)CC(C)(C)CC2=O)nc1-c1ccccc1 | > 100 | > 100 | > 100 | – | > 100 | > 100 | > 100 | > 100 | – | > 100 | – | – | – | – | – | – | – | – | – |
| Clc1cc(N/N=C(\c2ccccc2)c2ccccn2)ncn1 | 2.7 | 45.2 | > 100 | – | 0.0669 | 2 | > 100 | > 100 | 3.35 | 83.1 | – | – | – | – | – | – | – | – | – |
| Cc1ccc(C(=O)N/N=C(\N=Nc2ccc([N+](=O)[O-])cc2)c2ccc(N(CCC#N)CCC#N)cc2C)cc1 | – | 83.4 | > 100 | > 100 | > 100 | > 100 | > 100 | > 100 | > 100 | > 100 | – | – | – | – | – | – | – | – | – |
| O=C(Nc1cccc(-n2ccc3c(NC(=O)c4ccccc4)ncnc32)c1)Nc1ccc(Cl)c(C(F)(F)F)c1 | 7.52 | 9.85 | 8.18 | 9.51 | 7.94 | – | 5.93 | 5.98 | 9.01 | 9.88 | 1.77 | 1.99 | 2.61 | 2.36 | 2.65 | 2.06 | 2.13 | 1.25 | 1.75 |
| COc1ccc(-c2nc3ccccc3c(=O)[nH]2)cc1 | > 100 | > 100 | 95.1 | > 100 | > 100 | > 100 | > 100 | > 100 | > 100 | – | – | – | – | – | – | – | – | – | – |
| CSc1cc(Cl)c(C)cc1S(=O)(=O)NC(=O)NNc1ccc(C)cc1 | – | > 100 | > 100 | > 100 | > 100 | > 100 | > 100 | > 100 | > 100 | > 100 | – | – | – | – | – | – | – | – | – |
| CCOC(=O)c1ccc(N(CCOS(C)(=O)=O)CCOS(C)(=O)=O)cc1 | 77.6 | > 100 | > 100 | > 100 | > 100 | – | > 100 | > 100 | > 100 | > 100 | – | – | – | – | – | – | – | – | – |
| NCCCN(CCCCN(CCCN)CCCc1ccccc1)CCCc1ccccc1 | 3.28 | 23.5 | 17.1 | 32.8 | 4.39 | 14.1 | 12.3 | 3.57 | – | 2.72 | – | – | – | – | – | – | – | – | – |
| COC(=O)CN1CCN(c2cccc3c2CCCC3)CC1 | > 100 | > 100 | > 100 | > 100 | > 100 | – | > 100 | > 100 | > 100 | > 100 | – | – | – | – | – | – | – | – | – |
| O=C(C[N+]12CN3CN(CN(C3)C1)C2)c1ccc(-c2ccccc2)cc1 | 29.9 | > 100 | > 100 | 44.4 | 34.3 | – | 34 | 49.5 | 39.3 | 30.9 | – | – | – | – | – | – | – | – | – |
